“Also recorded” adds a separate entry of the source. Where two headings read alike, the source gives them in different places.
B1: gp350: highly purified EBV structural glycoprotein gp350, subunit preparation (recombinant and affinity purified) (protein, UniProt P03200 1-907, looked up)
Envelope glycoprotein GP350: MEAALLVCQYTIQSLIHLTGEDPGFFNVEIPEFPFYPTCNVCTADVNVTINFDVGGKKHQLDLDFGQLTPHTKAVYQPRGAFGGSENATNLFLLELLGAGELALTMRSKKLPINVTTGEEQQVSLESVDVYFQDVFGTMWCHHAEMQNPVYLIPETVPYIKWDNCNSTNITAVVRAQGLDVTLPLSLPTSAQDSNFSVKTEMLGNEIDIECIMEDGEISQVLPGDNKFNITCSGYESHVPSGGILTSTSPVATPIPGTGYAYSLRLTPRPVSRFLGNNSILYVFYSGNGPKASGGDYCIQSNIVFSDEIPASQDMPTNTTDITYVGDNATYSVPMVTSEDANSPNVTVTAFWAWPNNTETDFKCKWTLTSGTPSGCENISGAFASNRTFDITVSGLGTAPKTLIITRTATNATTTTHKVIFSKAPESTTTSPTLNTTGFADPNTTTGLPSSTHVPTNLTAPASTGPTVSTADVTSPTPAGTTSGASPVTPSPSPWDNGTESKAPDMTSSTSPVTTPTPNATSPTPAVTTPTPNATSPTPAVTTPTPNATSPTLGKTSPTSAVTTPTPNATSPTLGKTSPTSAVTTPTPNATSPTLGKTSPTSAVTTPTPNATGPTVGETSPQANATNHTLGGTSPTPVVTSQPKNATSAVTTGQHNITSSSTSSMSLRPSSNPETLSPSTSDNSTSHMPLLTSAHPTGGENITQVTPASISTHHVSTSSPAPRPGTTSQASGPGNSSTSTKPGEVNVTKGTPPQNATSPQAPSGQKTAVPTVTSTGGKANSTTGGKHTTGHGARTSTEPTTDYGGDSTTPRPRYNATTYLPPSTSSKLRPRWTFTSPPVTTAQATVPVPPTSQPRFSNLSMLVLQWASLAVLTLLLLLVMADCAFRRNLSTSHTYTTPPYDDAETYV

Experiments:
[1] = tested on: peptide-sensitized HLA-matched PHA blasts; type: cell-based, human
[2] = tested on: peptide-sensitized autologous PHA blasts
[3] = tested on: gp350- and gp85-specific CTL response; details: mouse, in vivo, sc
HLA A2 on T2 cells = target: T1, HLA A2 on T2 cells (Homo sapiens, UniProt P04439, D140Y/D185E/D98H/E176V/E277Q/G131W/G231S/I119V/I121R/I166T/I218V/L300P/L318F/N151K/N90K/P208A/P217A/Q86G/Q94H/R138H/R169H/T345S); experiment: MHC stabilisation assay on T2 cells (HLA A2 expression by FACS); type: cell-based; details: peptide 200 μg/ml, 26° C. 14-16h then 37° C. 2-3h
T1 construct: using HLA A2-positive T2 cells; endogenous in cells; host or cells: T2 (174xCEM.T2), TAP-negative B x T hybrid cell line
Description: FIG. 1:MHC stablization analysis on T2 cells using potential HLA A2 binding peptides within LMP1. T2 cells were initially incubated with 200 μl of each of the peptides (200 μg/ml) for 14-16h at 26° C. followed by incubation at 37° C. for 2-3h. HLA A2 expression on these cells was analysed by FACS using the BB7.2 antibody. The dotted line indicates the background mean fluorescence intensity for HIA A2 on T2 cells without any peptide. The LMP1 peptides showing significant stablization of HLA A2 molecules on T2 cells are indicated by arrows.
FIG. 6:Effect of variant LMP1 peptides on the HLA A2 binding (panel A) and CTL recognition (panel B). For HLA A2 binding analysis on T2 cells were initially incubated with 200 μl of each of the peptides (200 μg/ml) for 14-16h at 26° C. followed by incubation at 37° C. for 2-3h. HLA A2 expression on these cells was analysed by FACS using BB7.2 antibody (panel A). The dotted line indicates the background mean fluorescence intensity for HLA A2 on T2 cells without any peptide. […] Results are expressed as percent specific lysis. […]
FIG. 8:MHC stabilization analysis on T2 cells using potential HLA A2 binding peptides within gp85 (panel A) and gp350 (panel B). […] HLA A2 expression on these cells was analysed by FACS using the BB7.2 antibody. The dotted line indicates the background mean fluorescence intensity for HLA A2 on T2 cells without any peptide. […]

CTL clone SB7 = experiment: LMP1-specific CTL clone SB7, peptide recognition / 51Cr-release assay; type: cell-based, human; details: donor; for recognition of peptide by CTL clone SB7: effector:target 4:1
[4] = tested on: peptide-sensitized autologous PHA blasts; experiment: Polyclonal CTLs stimulated with LMP1 peptides, 51Cr-release assay; type: cell-based, human; details: HLA A2-positive donor; effector:target 20:1; targets 1 μg/ml peptide
EBV-positive lymphomas = details: cited from earlier work

| Molecule | reactivity of polyclonal CTL effectors against peptide-sensitized PHA blasts [2] | CTL response in splenocytes [3] | lysis of targets by CTLs activated from splenocytes of immunized mice [3] | ex vivo CTL recognition of peptide-sensitized targets [1] | also measured |
| --- | --- | --- | --- | --- | --- |
| TLFIGSHVV | recognized | induced strong CTL response | consistently showed strong lysis | – | ex vivo CTL response during acute infection [1]: not detectable |
| SLVIVTTFV | strong reactivity | induced strong CTL response | variable in vitro CTL lysis | strong reactivity | – |
| YLLEILWRL (Epstein Barr Virus) | – | – | – | – | expression of HLA A2 on T2 cells (HLA A2 on T2 cells): significantly increased; recognition of peptide by CTL clone SB7 (CTL clone SB7): efficiently recognized |
| YLQQNWWTL (Epstein Barr Virus) [LMP1 residues 159-167] | – | – | – | – | activation of polyclonal CTLs (specific lysis) [4]: significant activation of polyclonal CTLs; also recorded: weaker response; isolation of peptide-specific CTL clones (CTL clone SB7): No CTL clones specific; ex vivo CTL recognition of peptide-sensitized targets ([1]; all three IM patients, peptide 1 μg/ml): clear recognition |
| YFLEILWGL | – | – | – | – | expression of HLA A2 on T2 cells (HLA A2 on T2 cells): significantly increased; recognition of peptide by CTL clone SB7 (CTL clone SB7): no CTL activity |
| LMIIPLINV | recognized | – | – | recognised | – |
| VLQWASLAV | strong reactivity | induced strong CTL response | variable in vitro CTL lysis | strong reactivity; also recorded: recognised | – |
| B1 | – | – | – | – | tumor formation / tumor outgrowth (EBV-positive lymphomas; cotton-top tamarins): inhibited tumor formation; serum neutralizing antibodies (EBV-positive lymphomas; subcutaneously with adjuvants (muramyl dipeptide or ISCOMs)): induced high levels of serum neutralizing antibodies |

From patent US6723695B1, “CTL epitopes from EBV” (priority 1997, dated 2004)
